# Results reported in patent US11779566B2 (priority 2016, dated 2023).
# Key:
# [1] = test system: CV; details: lethal infection with CV; treatments delayed up to 72 h post-viral inoculation; cited from earlier work
# [2] = test system: VV; details: lethal infection with VV; treatments delayed up to 72 h post-viral inoculation; cited from earlier work
# [3] = test system: camelpox; details: read-out: 50% effective concentration [EC50], inhibition of virus replication; cited from earlier work
# [4] = physchem; details: aqueous buffer
# [5] = test system: vaccinia virus (VV); details: in vitro, read-out: 50% effective concentration [EC50], inhibition of virus replication; cited from earlier work
# [6] = test system: cowpox virus (CV); details: in vitro, read-out: 50% effective concentration [EC50], inhibition of virus replication; cited from earlier work
# [7] = test system: monkeypox; details: in vitro, read-out: 50% effective concentration [EC50], inhibition of virus replication; cited from earlier work
# [8] = test system: variola viruses; details: in vitro, read-out: 50% effective concentration [EC50], inhibition of virus replication; cited from earlier work
# [9] = test system: ECTV; details: mouse, in vivo; cited from earlier work
# [10] = test system: ectromelia virus (ECTV); details: read-out: 50% effective concentration [EC50], inhibition of virus replication; cited from earlier work
# [11] = test system: VV; details: orally twice a day at 15 or 50 mg/kg of body weight for 5 days; cited from earlier work
compound,measurement,setting,value
"O=C(NN1C(=O)[C@@H]2[C@@H]3C=C[C@@H]([C@H]4C[C@@H]34)[C@@H]2C1=O)c1ccc(C(F)(F)F)cc1 [ST-246, 4-trifluoromethyl-N-(3,3a,4,4a,5,5a,6,6a-octahydro-1,3-dioxo-4,6-ethenocycloprop[f]isoindol-2-(1H)-yl)-benzamide]",preventing or reducing mortality,[1],highly effective in preventing or reducing mortality
same,preventing or reducing mortality,[2],highly effective in preventing or reducing mortality
same,EC50,[3],≤ 70 nM
same,solubility,[4],~2 µg/mL
same,EC50,[5],≤ 70 nM
same,EC50,[6],≤ 70 nM
same,EC50,[7],≤ 70 nM
same,EC50,[8],≤ 70 nM
same,preventing or reducing mortality,[9],highly effective in preventing or reducing mortality
same,toxicity in animal models,[9],nontoxic
same,EC50,[10],≤ 70 nM
same,tail lesions,[11],significantly reduced
